± gives the uncertainty stated by the source.
Assay: xn = mol fraction of the nth substance listed

C1=CCCCC1 + C1CCCCC1
303.15 K, 101 kPa
Conditions	viscosity [mPa·s]
x1 = 0.1133	0.772 ± 0.01
x1 = 0.2435	0.745 ± 0.01
x1 = 0.3293	0.725 ± 0.009
x1 = 0.3919	0.72 ± 0.009
x1 = 0.4866	0.684 ± 0.009
x1 = 0.582	0.678 ± 0.009
x1 = 0.7181	0.654 ± 0.008
x1 = 0.8663	0.62 ± 0.008

C=C(C)C(=O)OCC + C1CCCCC1
viscosity [mPa·s], 101 kPa
Conditions	298.15 K	308.15 K
x1 = 0.0581	0.837 ± 0.084	0.711 ± 0.072
x1 = 0.1534	0.768 ± 0.077	0.651 ± 0.065
x1 = 0.2549	0.711 ± 0.071	0.601 ± 0.06
x1 = 0.3548	0.668 ± 0.067	0.564 ± 0.057
x1 = 0.3935	0.655 ± 0.066	0.552 ± 0.055
x1 = 0.5465	0.619 ± 0.062	0.52 ± 0.052
x1 = 0.5568	0.618 ± 0.062	0.518 ± 0.052
x1 = 0.6264	0.61 ± 0.061	0.511 ± 0.051
x1 = 0.7559	0.606 ± 0.061	0.506 ± 0.051
x1 = 0.8548	0.614 ± 0.062	0.51 ± 0.051
x1 = 0.9399	0.628 ± 0.063	0.52 ± 0.052

CC1CCCCC1 + C1CCCCC1
303.15 K, 101 kPa
Conditions	viscosity [mPa·s]
x2 = 0.0996	0.6425 ± 0.0044
x2 = 0.1991	0.6465 ± 0.0044
x2 = 0.2949	0.6574 ± 0.0045
x2 = 0.3948	0.6697 ± 0.0045
x2 = 0.497	0.6849 ± 0.0046
x2 = 0.6005	0.7041 ± 0.0047
x2 = 0.699	0.7258 ± 0.0048
x2 = 0.7978	0.7519 ± 0.0049
x2 = 0.8955	0.7854 ± 0.0051

CCCNCCC + C1CCCCC1
viscosity [mPa·s], 101 kPa
Conditions	x1 = 0.01137	x1 = 0.02125	x1 = 0.03212	x1 = 0.0414	x1 = 0.05092	x1 = 0.06219	x1 = 0.07269	x1 = 0.08114	x1 = 0.09193
303.15 K	0.8095 ± 0.0056	0.8028 ± 0.0055	0.7945 ± 0.0055	0.784 ± 0.0054	0.7745 ± 0.0054	0.7633 ± 0.0053	0.7535 ± 0.0053	0.7441 ± 0.0053	0.7334 ± 0.0052
313.15 K	0.7072 ± 0.005	0.6995 ± 0.005	0.692 ± 0.0049	0.6827 ± 0.0049	0.6721 ± 0.0049	0.6596 ± 0.0048	0.649 ± 0.0048	0.6399 ± 0.0047	0.6296 ± 0.0047

CCOC(=O)c1ccccc1 + C1CCCCC1
viscosity [mPa·s], 101 kPa
Conditions	x1 = 0.0779	x1 = 0.1586	x1 = 0.2454	x1 = 0.3327	x1 = 0.4305	x1 = 0.5312	x1 = 0.6374	x1 = 0.751	x1 = 0.868
303.15 K	0.82 ± 0.017	0.832 ± 0.017	0.88 ± 0.018	0.937 ± 0.02	1.025 ± 0.021	1.123 ± 0.023	1.248 ± 0.026	1.387 ± 0.029	1.552 ± 0.032
308.15 K	0.78 ± 0.016	0.801 ± 0.017	0.84 ± 0.018	0.89 ± 0.019	0.96 ± 0.02	1.047 ± 0.022	1.157 ± 0.024	1.295 ± 0.027	1.439 ± 0.03
313.15 K	0.708 ± 0.015	0.727 ± 0.015	0.772 ± 0.016	0.819 ± 0.017	0.885 ± 0.019	0.967 ± 0.02	1.069 ± 0.022	1.198 ± 0.025	1.33 ± 0.028

Cc1cccc([N+](=O)[O-])c1 + C1CCCCC1
303.15 K, 101.33 kPa
Conditions	viscosity [mPa·s]
x1 = 0.206	0.93 ± 0.02
x1 = 0.38	1.03 ± 0.018
x1 = 0.593	1.25 ± 0.017
x1 = 0.801	1.54 ± 0.018

c1cscn1 + C1CCCCC1
298.15 K, 101 kPa
Conditions	viscosity [mPa·s]
x1 = 0.1468	0.8439 ± 0.022
x1 = 0.2448	0.7891 ± 0.021
x1 = 0.4908	0.8119 ± 0.022
x1 = 0.7468	0.8753 ± 0.023
x1 = 0.8357	0.904 ± 0.024
x1 = 0.8841	0.928 ± 0.025
x1 = 0.9385	0.958 ± 0.025

CC1CCCCC1 + C1CCOC1
303.15 K, 101.33 kPa
Conditions	viscosity [mPa·s]
x2 = 0.111	0.604 ± 0.005
x2 = 0.2072	0.576 ± 0.005
x2 = 0.3062	0.548 ± 0.005
x2 = 0.404	0.525 ± 0.005
x2 = 0.4829	0.507 ± 0.005
x2 = 0.504	0.503 ± 0.005
x2 = 0.6018	0.487 ± 0.005
x2 = 0.7067	0.47 ± 0.004
x2 = 0.9006	0.447 ± 0.004

CCCCCl + C1CCOC1
viscosity [mPa·s], 101 kPa
Conditions	298.15 K	313.15 K
x2 = 0.0418	0.4311 ± 0.0091	0.3702 ± 0.0079
x2 = 0.052	0.434 ± 0.012	–
x2 = 0.0524	0.4231 ± 0.005	0.3656 ± 0.0048
x2 = 0.0982	0.4366 ± 0.0093	0.3758 ± 0.008
x2 = 0.0985	0.439 ± 0.012	–
x2 = 0.108	0.425 ± 0.005	0.3675 ± 0.0048
x2 = 0.153	0.443 ± 0.013	–
x2 = 0.1781	0.442 ± 0.0094	0.3808 ± 0.0081
x2 = 0.2063	0.4287 ± 0.005	0.3706 ± 0.0048
x2 = 0.2076	0.444 ± 0.0094	0.3826 ± 0.0081
x2 = 0.29	0.449 ± 0.013	–
x2 = 0.2991	0.4324 ± 0.005	0.3737 ± 0.0048
x2 = 0.2996	0.4479 ± 0.0095	0.3869 ± 0.0082
x2 = 0.36	0.452 ± 0.013	–
x2 = 0.4	0.4522 ± 0.0096	0.3911 ± 0.0083
x2 = 0.4088	0.4367 ± 0.005	0.3772 ± 0.0048
x2 = 0.4229	0.455 ± 0.013	–
x2 = 0.445	0.456 ± 0.013	–
x2 = 0.4998	0.4547 ± 0.0096	0.3937 ± 0.0084
x2 = 0.507	0.4408 ± 0.0051	0.3804 ± 0.0049
x2 = 0.5395	0.457 ± 0.013	–
x2 = 0.5516	0.4553 ± 0.0096	0.3943 ± 0.0084
x2 = 0.5945	0.458 ± 0.013	–
x2 = 0.5979	0.4565 ± 0.0097	0.3955 ± 0.0084
x2 = 0.6074	0.4453 ± 0.0051	0.3838 ± 0.0049
x2 = 0.6605	0.459 ± 0.013	–
x2 = 0.6991	0.458 ± 0.0097	0.3977 ± 0.0084
x2 = 0.7001	0.4495 ± 0.0051	0.387 ± 0.0049
x2 = 0.7649	0.46 ± 0.013	–
x2 = 0.8021	0.4598 ± 0.0097	0.3997 ± 0.0085
x2 = 0.8054	0.4546 ± 0.0051	0.3907 ± 0.0049
x2 = 0.8499	0.46 ± 0.0097	0.3999 ± 0.0085
x2 = 0.8658	0.461 ± 0.013	–
x2 = 0.891	0.4587 ± 0.0051	0.3939 ± 0.0049
x2 = 0.8993	0.4607 ± 0.0098	0.4 ± 0.0085
x2 = 0.9108	0.46 ± 0.013	–
x2 = 0.9519	0.4598 ± 0.0097	0.4006 ± 0.0085
x2 = 0.9528	0.4613 ± 0.0051	0.3961 ± 0.0049

CCOC(=O)c1ccccc1 + C1CCOC1
viscosity [mPa·s], 101 kPa
Conditions	x1 = 0.0601	x1 = 0.1259	x1 = 0.198	x1 = 0.2773	x1 = 0.3628	x1 = 0.4611	x1 = 0.5719	x1 = 0.6953	x1 = 0.8372
303.15 K	0.488 ± 0.017	0.545 ± 0.017	0.617 ± 0.018	0.706 ± 0.018	0.804 ± 0.019	0.937 ± 0.019	1.083 ± 0.02	1.257 ± 0.021	1.474 ± 0.023
308.15 K	0.473 ± 0.017	0.524 ± 0.017	0.595 ± 0.018	0.676 ± 0.018	0.767 ± 0.018	0.885 ± 0.019	1.019 ± 0.02	1.168 ± 0.021	1.36 ± 0.022
313.15 K	0.436 ± 0.017	0.49 ± 0.017	0.553 ± 0.018	0.626 ± 0.018	0.706 ± 0.018	0.809 ± 0.019	0.928 ± 0.019	1.063 ± 0.02	1.229 ± 0.021

[Li+].[O-][Cl+3]([O-])([O-])[O-] + C1CCOC1
101 kPa, x1 = 0.07
Conditions	viscosity [mPa·s]
303.15 K	0.85 ± 0.09
308.15 K	0.81 ± 0.08
313.15 K	0.78 ± 0.08
318.15 K	0.74 ± 0.07
323.15 K	0.71 ± 0.07

C1=CCCCC1 + C1COCCO1
303.15 K, 101 kPa
Conditions	viscosity [mPa·s]
x1 = 0.1067	0.932 ± 0.012
x1 = 0.2617	0.833 ± 0.011
x1 = 0.3551	0.789 ± 0.01
x1 = 0.4267	0.754 ± 0.01
x1 = 0.4787	0.734 ± 0.009
x1 = 0.5637	0.702 ± 0.009
x1 = 0.6603	0.668 ± 0.009
x1 = 0.7706	0.634 ± 0.008
x1 = 0.8678	0.606 ± 0.008
